Experimental data taken from the supplement of paper PMC10307832.

Tests used:
Experiment in all cases: relative viability (nuclei count vs DMSO), 5 days (fraction); higher = more cells survive
XMD8-85 + Tozasertib = compound: CN1CCN(CC1)C2=CC(=C(C=C2)NC3=NC=C4C(=N3)N(C5=CC=CC=C5C(=O)N4C)C)OC [XMD8-85] + Cc1cc(Nc2cc(N3CCN(C)CC3)nc(Sc3ccc(NC(=O)C4CC4)cc3)n2)n[nH]1 [Tozasertib] (partner 0.1 µM)
In short: (§1)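 After 5 days of treatment, lung cancer cells in 1536-well plates were fixed and stained in a single step (final 0.05% Triton X-100, 1% formaldehyde, 1 ug/ml Hoechst) and their nuclei counted on 4× images. Treatment had been applied by pin tool the day after seeding as one drug alone or as a fixed anchor-drug dose with five library-drug doses (not always all listed) in √10 steps. Relative viability is the nuclei count of treated wells divided by that of vehicle wells, and values are medians of duplicate plates.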

XMD8-85 + AZD7762 = compound: CN1CCN(CC1)C2=CC(=C(C=C2)NC3=NC=C4C(=N3)N(C5=CC=CC=C5C(=O)N4C)C)OC [XMD8-85] + NC(=O)Nc1cc(-c2cccc(F)c2)sc1C(=O)N[C@H]1CCCNC1 [AZD7762] (partner 0.2 µM)
In short: as §1

XMD8-85 + Pemetrexed = compound: CN1CCN(CC1)C2=CC(=C(C=C2)NC3=NC=C4C(=N3)N(C5=CC=CC=C5C(=O)N4C)C)OC [XMD8-85] + Nc1nc2[nH]cc(CCc3ccc(C(=O)N[C@@H](CCC(=O)O)C(=O)O)cc3)c2c(=O)[nH]1 [Pemetrexed] (partner 0.2 µM)
In short: as §1

4EGI-1 + Phenformin = compound: O=C(O)C(Cc1ccccc1[N+](=O)[O-])=NNc1nc(-c2ccc(Cl)c(Cl)c2)cs1 (mixture of isomers) [4EGI-1] + N=C(N)NC(=N)NCCc1ccccc1 [Phenformin] (partner 250 µM)
In short: as §1

Cell Line | relative viability (XMD8-85 + Tozasertib; first compound 0.08 µM) | relative viability (XMD8-85 + Tozasertib; first compound 0.253 µM) | relative viability (XMD8-85 + Tozasertib; first compound 0.8 µM) | relative viability (XMD8-85 + Tozasertib; first compound 2.53 µM) | relative viability (XMD8-85 + Tozasertib; first compound 8 µM) | relative viability (XMD8-85 + AZD7762; first compound 0.08 µM) | relative viability (XMD8-85 + AZD7762; first compound 0.253 µM) | relative viability (XMD8-85 + AZD7762; first compound 0.8 µM) | relative viability (XMD8-85 + AZD7762; first compound 2.53 µM) | relative viability (XMD8-85 + AZD7762; first compound 8 µM) | relative viability (XMD8-85 + Pemetrexed; first compound 0.08 µM) | relative viability (XMD8-85 + Pemetrexed; first compound 0.253 µM) | relative viability (XMD8-85 + Pemetrexed; first compound 0.8 µM) | relative viability (XMD8-85 + Pemetrexed; first compound 2.53 µM) | relative viability (XMD8-85 + Pemetrexed; first compound 8 µM) | relative viability (4EGI-1 + Phenformin; first compound 0.5 µM) | relative viability (4EGI-1 + Phenformin; first compound 5 µM) | relative viability (4EGI-1 + Phenformin; first compound 15.81 µM) | relative viability (4EGI-1 + Phenformin; first compound 50 µM) | relative viability (4EGI-1 + Phenformin; first compound 1.581 µM)
PC-14 | 0.556 | 0.529 | 0.541 | 0.463 | 0.397 | 0.352 | 0.364 | 0.34 | 0.394 | 0.18 | 0.114 | 0.144 | 0.126 | 0.116 | 0.101 | 0.614 | 0.792 | 0.188 | 0.232 | –
NCI-H520 | 0.388 | 0.414 | 0.44 | 0.406 | 0.341 | – | – | – | – | – | 0.709 | 0.697 | 0.75 | 0.595 | 0.361 | 0.866 | 0.703 | 0.669 | 0.191 | 0.589
NCI-H2342 | 0.529 | 0.46 | 0.478 | 0.424 | 0.405 | 0.509 | 0.478 | 0.552 | 0.511 | 0.488 | 0.808 | 0.805 | 0.891 | 0.828 | 0.775 | 0.582 | 0.716 | 0.641 | 0.522 | 0.588
NCI-H3122 | 0.427 | 0.453 | 0.373 | 0.237 | 0.177 | 1.05 | 1.08 | 1.05 | 1.06 | 1.14 | 0.178 | 0.201 | 0.203 | 0.213 | 0.172 | 0.372 | 0.378 | 0.33 | 0.169 | –
HCC-78 | 0.407 | 0.465 | 0.397 | 0.434 | 0.296 | 0.556 | 0.582 | 0.728 | 1.13 | 0.499 | 0.915 | 0.892 | 0.906 | 0.95 | 0.855 | 0.812 | 0.741 | 0.668 | 0.658 | –
SW 1573 | 0.222 | 0.197 | 0.175 | 0.174 | 0.156 | – | – | – | – | – | 0.831 | 0.813 | 1.06 | 0.895 | 0.461 | 0.457 | 0.403 | 0.276 | 0.114 | 0.388
RERF-LC-KJ | 0.552 | 0.465 | 0.473 | 0.409 | 0.295 | 1.01 | 0.98 | 0.936 | 1.3 | 0.886 | 0.46 | 0.478 | 0.484 | 0.497 | 0.43 | 0.412 | 0.442 | 0.354 | 0.333 | –
SK-MES-1 | 0.998 | 0.939 | – | 0.81 | 0.276 | – | – | – | – | – | 0.857 | 1.08 | 1 | 0.9 | 0.44 | 0.687 | 0.725 | 0.618 | 0.381 | 0.614
NCI-H1993 | 0.583 | 0.628 | 0.56 | 0.557 | 0.546 | 0.772 | 0.716 | 0.959 | 0.844 | 0.818 | 0.604 | 0.572 | 0.681 | 0.739 | 0.563 | 0.536 | 0.481 | 0.631 | 0.5 | 0.452
